Data from PubChem BioAssay AID1963868 (Molecular Pharmacology Branch, DTP, NCI, 2024).
pIC50: −log10 of the molar value.

System: KRAS PDC tumor spheroids (HUVEC+MSC), viability
Experiment: Anticancer human tumor 254851-301-R-J1-PDC patient-derived colon carcinoma cell line growth inhibition [KRAS2]
Conditions: for pIC50: curve of first compound; for viability, T/C: stronger effect = lower value
From the text: Multicellular complex tumor spheroid response to RAS pathway inhibitors in combination with a targeted agents in patient-derived cell lines with oncogenic KRAS variants from multiple cancer types
A high-throughput screen of multi-cell type tumor spheroids was designed to identify active combinations of targeted small molecules and KRAS pathway inhibitors. Complex spheroids include a stromal component modeled by human endothelial cells (HUVEC) and fibroblasts modeled by human mesenchymal stem cells (MSCs). The concentration ranges selected for each drug and investigational agent were based upon clinically achievable concentrations if the clinical Cmax of the agent was known.
Compounds. The drugs and investigational agents: BI-3406 (NSC825286), BAY-293 (NSC824723), batoprotafib (TNO155; NSC825523), sotorasib (AMG 510; NSC818433), MRTX1257 (NSC819558), elimusertib (BAY 1895344; NSC800525), molibresib (GSK525762; NSC774829), temuterkib (LY3214996; NSC803410), venetoclax (NSC766270), alisertib (NSC759677), olaparib (NSC753686), talazoparib (NSC767125), erdafitinib (NSC781556), ipatasertib (NSC767898), cabozantinib (NSC761068), nintedanib (NSC756659), abemaciclib (NSC768073), docetaxel (NSC628503), trametinib (NSC758246), and sapanisertib (NSC764658) were obtained from the National Cancer Institute (NCI) Developmental Therapeutics Program Chemical Repository. The FDA-approved anticancer drug set is available from the Developmental Therapeutics Program. […] The stock solutions were prepared in dimethyl sulfoxide (DMSO, Sigma-Aldrich, St. Louis, MO, cat. D2650) at 800-fold the tested concentration and stored at -70 degrees C prior to their use. All drugs and investigational agents were tested over a range starting from a high concentration at or near the clinical Cmax and decreasing in half-log increments. If the clinical Cmax for an agent had not been determined, the highest concentration tested was 10 microM.
Cell Culture. All cells were maintained in an incubator at 37 degrees C and 5% CO2 with 95% humidity. The PDC lines were cultured according to standard operating procedures established by the NCI PDMR (https://pdmr.cancer.gov/sops/default.htm). Briefly, all PDCs were thawed and cultured in Matrigel-coated flasks prepared with a working solution of 1X Ham's F-12 nutrient mix, without supplementation (Invitrogen, Waltham, MA, cat. 11765054), 100 U/mL penicillin-streptomycin (Invitrogen, cat. 15140122), and 2.5% Matrigel (Corning Inc., Corning, NY, cat. 354248) for the first three passages. All PDCs were cultured in complete DMEM/F-12 media containing advanced DMEM/F-12 (Invitrogen, cat. 12634028), 4.9% defined fetal bovine serum, heat inactivated (HyClone Laboratories Inc., Logan, UT, cat. SH30070.03HI), 389 ng/mL hydrocortisone (Sigma-Aldrich, cat. H4001), 9.7 ng/mL human EGF recombinant protein (Invitrogen, cat. PHG0313), 23.4 microg/mL adenine (Sigma-Aldrich, cat. A2786), 97.3 U/mL penicillin-streptomycin (Invitrogen, cat. 15140122), 1.9 mM L-glutamine (Invitrogen, cat. 25030081), and 9.7 microM Y-27632 dihydrochloride (Tocris Bioscience, Bristol, United Kingdom, cat. 1254). The PDCs were cultured in complete DMEM/F12 media without 9.7 microM Y-27632 dihydrochloride for at least two passages prior to the screen. The established cell line HOP-62 was cultured in RPMI 1640 medium, HEPES (Invitrogen, cat. 22400105) with 10% defined fetal bovine serum (HyClone Laboratories Inc., cat. SH30070.03) and 2 mM L-glutamine (Invitrogen, cat. 25030081). The pooled donor HUVEC were cultured in endothelial cell growth medium 2 (PromoCell, Heidelberg, Germany, cat. C-22011) and the hMSC were cultured in mesenchymal stem cell growth medium 2 (PromoCell, cat. C-28009). For all experiments, HUVEC and hMSC were used at passages </=5, while the malignant cell lines were used at passages </=15. […]

[1] = second compound 0.1 µM, first compound 0.01 µM
[2] = second compound 0.1 µM, first compound 0.0316 µM
[3] = second compound 0.1 µM, first compound 0.1 µM
[4] = second compound 0.1 µM, first compound 0.316 µM
[5] = second compound 0.1 µM, first compound 1 µM
[6] = second compound 0.1 µM, first compound 3.16 µM
[7] = second compound 0.316 µM, first compound 0.01 µM
[8] = second compound 0.316 µM, first compound 0.0316 µM
[9] = second compound 0.316 µM, first compound 0.1 µM
[10] = second compound 0.316 µM, first compound 0.316 µM
[11] = second compound 0.316 µM, first compound 1 µM
[12] = second compound 0.316 µM, first compound 3.16 µM
[13] = second compound 1 µM, first compound 0.01 µM
[14] = second compound 1 µM, first compound 0.0316 µM
[15] = second compound 1 µM, first compound 0.1 µM
[16] = second compound 1 µM, first compound 0.316 µM
[17] = second compound 1 µM, first compound 1 µM
[18] = second compound 1 µM, first compound 3.16 µM
[19] = second compound 3.16 µM, first compound 0.01 µM
[20] = second compound 3.16 µM, first compound 0.0316 µM
[21] = second compound 3.16 µM, first compound 0.1 µM
[22] = second compound 3.16 µM, first compound 0.316 µM
[23] = second compound 3.16 µM, first compound 1 µM
[24] = second compound 3.16 µM, first compound 3.16 µM
[25] = second compound 10 µM, first compound 0.0316 µM
[26] = second compound 10 µM, first compound 0.1 µM
[27] = second compound 10 µM, first compound 0.316 µM
[28] = second compound 10 µM, first compound 1 µM
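Note: spheroids exposed to compounds for seven days before readout.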
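Throughout, for viability, T/C: 100% = DMSO vehicle control luminescence of the spheroids.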

| Compound | pIC50 (second compound 0.1 µM) | pIC50 (second compound 0.316 µM) | pIC50 (second compound 1 µM) | pIC50 (second compound 3.16 µM) | viability, T/C [2] [%] | viability, T/C [3] [%] | viability, T/C [4] [%] | viability, T/C [5] [%] | viability, T/C [8] [%] | viability, T/C [9] [%] | viability, T/C [10] [%] | viability, T/C [11] [%] | viability, T/C [14] [%] | viability, T/C [15] [%] | viability, T/C [16] [%] | viability, T/C [17] [%] | viability, T/C [20] [%] | viability, T/C [21] [%] | viability, T/C [22] [%] | viability, T/C [23] [%] | further results |
| --- | --- | --- | --- | --- | --- | --- | --- | --- | --- | --- | --- | --- | --- | --- | --- | --- | --- | --- | --- | --- | --- |
| CC1COCCN1c1cc(-c2ccnn2C)c2ccnc(-c3ccn[nH]3)c2n1 (stereo not given) + C=CC(=O)N1CCN(c2nc(OCC3CCCN3C)nc3c2CCN(c2cccc4cccc(C)c24)C3)CC1CC#N | 6.52 | 6.73 | 7.08 | 7.62 | 95.3 | 64.8 | 50.8 | 34 | 97.1 | 58.8 | 41.9 | 32.3 | 53 | 48.8 | 26.3 | 26.5 | 47.1 | 32.8 | 23.3 | 18.8 | pIC50 (second compound 0.0316 µM): 6.68; viability, T/C (second compound 0.0316 µM, first compound 0.01 µM): 122%; viability, T/C (second compound 0.0316 µM, first compound 0.0316 µM): 88.8%; viability, T/C (second compound 0.0316 µM, first compound 0.1 µM): 62.7%; viability, T/C (second compound 0.0316 µM, first compound 0.316 µM): 40.4%; viability, T/C (second compound 0.0316 µM, first compound 1 µM): 32.7%; viability, T/C (second compound 0.0316 µM, first compound 3.16 µM): 20.4%; viability, T/C [1]: 101%; viability, T/C [6]: 21.4%; viability, T/C [7]: 105%; viability, T/C [12]: 22.5%; viability, T/C [13]: 59.4%; viability, T/C [18]: 39.7%; viability, T/C [19]: 57.6%; viability, T/C [24]: 23.8% |
| CC1OCC2(CCN(c3cnc(Sc4ccnc(N)c4Cl)c(N)n3)CC2)C1N (stereo not given) + C=CC(=O)N1CCN(c2nc(=O)n(-c3c(C)ccnc3C(C)C)c3nc(-c4c(O)cccc4F)c(F)cc23)C(C)C1 | < 5.00 | < 5.00 | < 5.00 | < 5.00 | 95 | 91 | 81.6 | 60.2 | 78 | 99.2 | 75.4 | 71.4 | 94.6 | 84.7 | 76.3 | 74.1 | 92.6 | 71.1 | 81.5 | 63.9 | pIC50 (second compound 10 µM): < 5.00; viability, T/C [6]: 67.2%; viability, T/C (second compound 0.1 µM, first compound 10 µM): 61.9%; viability, T/C [12]: 60.5%; viability, T/C (second compound 0.316 µM, first compound 10 µM): 68.7%; viability, T/C [18]: 67.8%; viability, T/C (second compound 1 µM, first compound 10 µM): 67.5%; viability, T/C [24]: 72.2%; viability, T/C (second compound 3.16 µM, first compound 10 µM): 65.6%; viability, T/C [25]: 80.7%; viability, T/C [26]: 70.8%; viability, T/C [27]: 58.9%; viability, T/C [28]: 55.6%; viability, T/C (second compound 10 µM, first compound 3.16 µM): 56%; viability, T/C (second compound 10 µM, first compound 10 µM): 66.3% |
| CCN1CCN(Cc2ccc(Nc3ncc(F)c(-c4cc(F)c5nc(C)n(C(C)C)c5c4)n3)nc2)CC1 + CC1OCC2(CCN(c3cnc(Sc4ccnc(N)c4Cl)c(N)n3)CC2)C1N | 6.28 | 6.32 | 6.47 | 7.32 | 99.2 | 92.4 | 61.7 | 35.3 | 87.5 | 75.5 | 62.6 | 30.6 | 81.2 | 69.2 | 52.5 | 28.8 | 56.6 | 44 | 28.6 | 26.8 | pIC50 (second compound 10 µM): 7.00; viability, T/C (second compound 0.1 µM, first compound 0.00316 µM): 94.5%; viability, T/C [1]: 92.5%; viability, T/C (second compound 0.316 µM, first compound 0.00316 µM): 93.9%; viability, T/C [7]: 91.2%; viability, T/C (second compound 1 µM, first compound 0.00316 µM): 82.7%; viability, T/C [13]: 94.3%; viability, T/C (second compound 3.16 µM, first compound 0.00316 µM): 54.2%; viability, T/C [19]: 49.7%; viability, T/C (second compound 10 µM, first compound 0.00316 µM): 62.5%; viability, T/C (second compound 10 µM, first compound 0.01 µM): 65.8%; viability, T/C [25]: 54.8%; viability, T/C [26]: 51.3%; viability, T/C [27]: 35.5%; viability, T/C [28]: 13.5% |
